In paper PMC6456411 (Angewandte Chemie (International ed. in English), 2019):
Where two headings read alike, the source gives them in different places.

Key:
Saos-2 cells = assay: Cytotoxicity of chemotherapy drugs on 2D cell culture of Saos-2
[1] = test system: co-culture of HS-5 and Saos-2 cells, 2D cell sheets; assay: Cytotoxicity of chemotherapy drugs on co-cultured 2D cell sheets; assay type: cell-based; conditions: co-culture 2D cell sheets, 24 h; for cell toxicity: within the tested concentrations
[2] = test system: co-culture of HS-5 and Saos-2 cells, 3D cell spheroids; assay: Cytotoxicity of chemotherapy drugs on co-cultured 3D spheroids; assay type: cell-based; conditions: co-culture 3D cell spheroids, 24 h; for cell toxicity: within the tested concentrations
[3] = test system: Saos-2 cells in 3D culture; assay: Cytotoxicity of chemotherapy drugs on 3D cell spheroids of Saos-2; assay type: cell-based
[4] = test system: co-culture of HS-5 and Saos-2 cells; assay: Spheroid formation and live-dead assay in co-culture of HS-5 and Saos-2 cells; assay type: cell-based; conditions: treated for 48 h; 1P:2 300 μM, ratio 1:1
[5] = Homo sapiens, SAOS-2, 48 h, read-out: IC50 against Saos-2 cells

COc1cccc2c1C(=O)c1c(O)c3c(c(O)c1C2=O)C[C@@](O)(C(=O)CO)C[C@@H]3O[C@H]1C[C@H](N)[C@H](O)[C@H](C)O1 [Dox, doxorubicin]
IC50 (Saos-2 cells; [5]): 1400 nM | cell killing ([1]; 5 μM): kills about half of cells | cell toxicity [1]: dosage dependent cell toxicity | cell death ([2]; 5 μM): hardly causes cell death | cell toxicity [2]: little toxicity | IC50 [3, 5]: > 6 µM | increase of IC50 in 3D culture than 2D culture ([3]; Saos-2 cells, 48 h): more than 3 times

N.N.[Cl][Pt][Cl] [cisplatin]
cell killing ([1]; 50 nM): kills about half of cells | cell toxicity [1]: dosage dependent cell toxicity | cell death ([2]; 50 nM): hardly causes cell death | cell toxicity [2]: little toxicity | IC50 ([3]; read-out: IC50 against Saos-2 cells, 3D culture, 48 h): 33.3 µM | IC50 ([3]; read-out: increase of IC50 in 3D culture, Saos-2 cells, 48 h, 3D versus 2D): 12 µM

CN[C@H](CC(C)C)C(=O)N[C@H]1C(=O)N[C@@H](CC(N)=O)C(=O)N[C@H]2C(=O)N[C@H]3C(=O)N[C@H](C(=O)N[C@H](C(=O)O)c4cc(O)cc(O)c4-c4cc3ccc4O)[C@H](O)c3ccc(c(Cl)c3)Oc3cc2cc(c3O[C@@H]2O[C@H](CO)[C@@H](O)[C@H](O)[C@H]2O[C@H]2C[C@](C)(N)[C@H](O)[C@H](C)O2)Oc2ccc(cc2Cl)[C@H]1O [compound 2, vancomycin]
influence on cytotoxicity of chemotherapy drugs against Saos-2 cells (Saos-2 cells; co-incubating with chemotherapy drugs): hardly influence their cytotoxicity | morphology of co-cultured HS-5 and Saos-2 cells [4]: remain a 2D cell sheet

CC(=O)O[C@H]1C(=O)[C@@]2(C)[C@H]([C@H](OC(=O)c3ccccc3)[C@]3(O)C[C@H](OC(=O)[C@H](O)[C@@H](NC(=O)c4ccccc4)c4ccccc4)C(C)=C1C3(C)C)[C@]1(OC(C)=O)CO[C@@H]1C[C@@H]2O [taxol]
cell viability (Saos-2 cells; Saos-2 2D sheet, 40 nM, 48 h): 60.84% | cell viability ([3]; Saos-2 3D spheroids, 40 nM, 48 h): 94.25%
